Data reported in patent US6998503B2, “Crystalline solid form of (2S,5Z)-2-amino-7-(ethanimidoylamino)-2-methylhept-5-enoic acid” (Pharmacia Corporation, priority 2002, dated 2006).
Several values for one entry are separate records, joined by “and”; a condition that tells them apart may be missing. Equal entries are not always repeated.

Experiments:
Type in all cases: physicochemical
[1] = Analysis of amorphous material (hygroscopicity note at elemental analysis); conditions: observed at elemental analysis
[2] = Solubility of the amorphate in solvents
[3] = Moisture sorption by DVS moisture balance; conditions: for Desorption / Sorption (moisture gain) / Hysteresis Cycle 1: 25° C.
Text: The crystalline 2-amino-7-(ethanimidoylamino)-2-methylhept-5-enoic acid 1.5 HCl is nonhygroscopic at and below 70% relative humidity. […] At 80% R.H. the gain was 18.5%, and at 90% R.H. the gain was 76.8%. The instrument cycled back to low relative humidity and the sample was removed then examined by polarized light microscopy. The sample was fully crystalline after removal from the moisture balance, but the crystallite size had increased. […] This salt form, 1.5 HCl has no solvation.

For `CC(=N)NC/C=C\CCC(C)(N)C(=O)O` (stereo in doubt) [(2S,5Z)-2-amino-7-(ethanimidoylamino)-2-methylhept-5-enoic acid], the hygroscopicity [1] was “(Note: Material appears to be hygroscopic - elemental”, the solubility ([2]; dry solvents: acetone, MEK, methyl isobutyl ketone, THF, ethyl acetate, chloroform, methylene chloride, hexanes, cyclohexane, di-isopropyl ether, acetonitrile, toluene) was “less than one” and the solubility ([2]; in isopropanol and solvents containing water: 10% water in THF, water saturated ethyl acetate, 10% water in acetonitrile, higher alcohols with water) was “soluble”. For the same compound, the solubility ([2]; in water, methanol and ethanol) was “freely soluble”.
For `CC(=N)NC/C=C\CC[C@](C)(N)C(=O)O.CC(=N)NC/C=C\CC[C@](C)(N)C(=O)O.Cl.Cl.Cl` [(2S,5Z)-2-amino-7-(ethanimidoylamino)-2-methylhept-5-enoic acid 1.5 HCl], the Desorption ([3]; target RH 0.0%) was 13.02%, the “Sorption (moisture gain)” value ([3]; target RH 0.0%) was 0.00% and the “Sorption (moisture gain)” value ([3]; target RH 10.0%) was 0.10%. For the same compound, the Desorption ([3]; target RH 20.0%) was 18.93%, the “Hysteresis Cycle 1” value ([3]; target RH 20.0%) was 18.77% and the “Sorption (moisture gain)” value ([3]; target RH 20.0%) was 0.16%. The “Sorption (moisture gain)” value ([3]; target RH 30.0%) was 0.21%, the Desorption ([3]; target RH 40.0%) was 22.72% and the “Hysteresis Cycle 1” value ([3]; target RH 40.0%) was 22.46%. For the same compound, the “Sorption (moisture gain)” value ([3]; target RH 40.0%) was 0.26%, the “Sorption (moisture gain)” value ([3]; target RH 50.0%) was 0.28% and the Desorption ([3]; target RH 60.0%) was 33.44%. For the same compound, the “Hysteresis Cycle 1” value ([3]; target RH 60.0%) was 33.16%, the “Sorption (moisture gain)” value ([3]; target RH 60.0%) was 0.27% and the “Sorption (moisture gain)” value ([3]; target RH 70.0%) was 0.91%. For the same compound, the Desorption ([3]; target RH 80.0%) was 67.59%, the “Hysteresis Cycle 1” value ([3]; target RH 80.0%) was 49.10% and the “Sorption (moisture gain)” value ([3]; target RH 80.0%, HCl) was 18.5% and 18.48%. For the same compound, the “Sorption (moisture gain)” value ([3]; target RH 85.0%) was 46.91%, the Desorption ([3]; target RH 90.0%) was 76.82% and the “Sorption (moisture gain)” value ([3]; target RH 90.0%, HCl) was 76.8% and 76.82%. For the same compound, the hygroscopicity ([3]; at and below 70% relative humidity) was “nonhygroscopic”.
